For the assay, the target named is T1, HpPutP (Helicobacter pylori, UniProt B6JPE8).
T1 construct: gene putP; full-length, C-terminal 6His tag (FLAG-6His for Western blots), expressed in E. coli WG170 (PutP-A-), intact cells
In words: inhibition of […]-L-proline uptake into E. coli WG170 expressing HpPutP, Dixon plot. The assay is classed as cell-based.

T1 sequence (B6JPE8 1-496): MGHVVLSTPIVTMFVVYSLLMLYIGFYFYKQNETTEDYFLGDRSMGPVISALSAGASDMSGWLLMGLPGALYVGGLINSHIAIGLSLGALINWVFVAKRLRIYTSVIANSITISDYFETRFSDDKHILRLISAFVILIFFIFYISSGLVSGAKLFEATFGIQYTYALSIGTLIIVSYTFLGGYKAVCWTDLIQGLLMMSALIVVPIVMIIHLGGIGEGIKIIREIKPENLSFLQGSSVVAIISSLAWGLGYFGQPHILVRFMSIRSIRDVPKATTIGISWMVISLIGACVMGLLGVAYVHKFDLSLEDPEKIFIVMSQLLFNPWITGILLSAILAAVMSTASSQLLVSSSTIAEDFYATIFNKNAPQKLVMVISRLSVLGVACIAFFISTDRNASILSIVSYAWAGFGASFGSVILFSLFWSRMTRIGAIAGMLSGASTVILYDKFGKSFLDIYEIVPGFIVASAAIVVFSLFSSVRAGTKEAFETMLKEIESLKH

As for `O=C(O)[C@@H]1CCN1` [AZC, L-azetidine-2-carboxylic acid], the Ki was determined as 44.2 ± 6.3 µM.
Compound `O=C(O)C1C=CCN1` (racemic) [DHP, 3,4-dehydro-D,L-proline] had a Ki of 5.7 ± 0.9 µM.

The Ki is the dissociation constant of the complex between target and ligand, obtained from inhibition or displacement. Low readings indicate a stronger hold on the target, high ones a looser hold on the target.
